Source: PMC4829233, “Identification of Novel Chemical Scaffolds Inhibiting Trypanothione Synthetase from Pathogenic Trypanosomatids” (PLoS Neglected Tropical Diseases, 2016)

Columns and labels:
Assay in all cases: biochemical
[1] = target: TcTryS (Trypanosoma cruzi trypanothione synthetase) (Trypanosoma cruzi, UniProt Q9GT49); format: biochemical; conditions: for remaining activity at 30 µM: read-out: TcTryS Activity ± 2σn-1 (%); for inhibition at 30 µM: read-out: % TcTryS inhibition ± 2σn-1
[2] = target: LiTryS (Leishmania infantum trypanothione synthetase) (Leishmania infantum, UniProt A4I2Z3); format: biochemical
[3] = target: TbTryS (Trypanosoma brucei trypanothione synthetase) (Trypanosoma brucei brucei, UniProt Q8IEX1); conditions: for activity at 30 µM: read-out: TbTryS Activity ± 2σn-1 (%)
TbTryS (Trypanosoma brucei trypanothione synthetase), sequence (Q8IEX1 1-627): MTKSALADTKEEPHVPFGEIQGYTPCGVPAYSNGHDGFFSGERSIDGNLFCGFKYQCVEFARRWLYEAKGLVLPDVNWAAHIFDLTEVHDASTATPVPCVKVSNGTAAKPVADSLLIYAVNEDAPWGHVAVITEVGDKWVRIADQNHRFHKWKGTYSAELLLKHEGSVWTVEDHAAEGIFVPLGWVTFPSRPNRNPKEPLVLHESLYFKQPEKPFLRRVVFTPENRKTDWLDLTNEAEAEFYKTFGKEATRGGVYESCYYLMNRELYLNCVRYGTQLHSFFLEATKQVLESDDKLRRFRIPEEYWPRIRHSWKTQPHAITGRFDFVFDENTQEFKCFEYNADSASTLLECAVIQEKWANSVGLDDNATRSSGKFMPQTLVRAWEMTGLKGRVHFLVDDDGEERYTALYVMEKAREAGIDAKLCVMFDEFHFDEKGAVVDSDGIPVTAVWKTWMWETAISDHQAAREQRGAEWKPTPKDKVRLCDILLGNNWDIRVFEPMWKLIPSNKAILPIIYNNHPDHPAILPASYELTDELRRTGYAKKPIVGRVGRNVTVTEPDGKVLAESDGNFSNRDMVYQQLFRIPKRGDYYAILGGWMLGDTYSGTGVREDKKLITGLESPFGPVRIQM

TcTryS (Trypanosoma cruzi trypanothione synthetase), sequence (Q9GT49 whole entry): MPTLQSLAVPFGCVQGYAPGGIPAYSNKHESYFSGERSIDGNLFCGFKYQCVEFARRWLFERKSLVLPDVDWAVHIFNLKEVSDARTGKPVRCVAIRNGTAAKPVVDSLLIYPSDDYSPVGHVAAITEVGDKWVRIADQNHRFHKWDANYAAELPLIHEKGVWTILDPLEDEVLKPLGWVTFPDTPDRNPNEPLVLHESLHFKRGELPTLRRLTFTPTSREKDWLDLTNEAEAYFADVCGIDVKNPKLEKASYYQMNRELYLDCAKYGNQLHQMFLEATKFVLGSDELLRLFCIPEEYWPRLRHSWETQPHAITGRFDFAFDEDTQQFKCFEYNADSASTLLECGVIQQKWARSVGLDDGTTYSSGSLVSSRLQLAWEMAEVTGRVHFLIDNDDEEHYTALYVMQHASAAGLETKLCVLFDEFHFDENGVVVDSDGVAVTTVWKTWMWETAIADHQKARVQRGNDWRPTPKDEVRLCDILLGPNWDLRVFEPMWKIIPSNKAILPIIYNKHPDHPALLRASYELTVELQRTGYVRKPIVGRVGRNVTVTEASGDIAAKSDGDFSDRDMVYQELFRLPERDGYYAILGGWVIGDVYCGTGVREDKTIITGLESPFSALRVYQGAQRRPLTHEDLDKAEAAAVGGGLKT
LiTryS (Leishmania infantum trypanothione synthetase), sequence (A4I2Z3 1-652): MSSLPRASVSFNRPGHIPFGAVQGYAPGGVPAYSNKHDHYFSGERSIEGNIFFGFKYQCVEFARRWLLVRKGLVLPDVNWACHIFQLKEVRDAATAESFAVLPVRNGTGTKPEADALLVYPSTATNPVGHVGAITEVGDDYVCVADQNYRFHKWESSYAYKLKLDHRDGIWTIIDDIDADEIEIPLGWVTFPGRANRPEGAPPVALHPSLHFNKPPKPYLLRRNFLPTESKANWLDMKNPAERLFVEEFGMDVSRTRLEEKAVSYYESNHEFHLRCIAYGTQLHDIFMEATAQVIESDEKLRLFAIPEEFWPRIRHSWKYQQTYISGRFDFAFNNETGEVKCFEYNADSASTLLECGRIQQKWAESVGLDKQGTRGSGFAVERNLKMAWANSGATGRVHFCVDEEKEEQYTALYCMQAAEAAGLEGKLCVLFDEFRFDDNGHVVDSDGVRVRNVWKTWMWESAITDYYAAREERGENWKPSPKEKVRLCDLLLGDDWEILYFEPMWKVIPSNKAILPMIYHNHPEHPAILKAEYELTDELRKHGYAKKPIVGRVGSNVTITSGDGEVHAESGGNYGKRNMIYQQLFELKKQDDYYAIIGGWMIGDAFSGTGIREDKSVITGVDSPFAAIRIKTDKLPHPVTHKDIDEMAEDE

| Structure (SMILES) | TcTryS Activity ± 2σn-1 (%) [1] | LiTryS Activity ± 2σn-1 (%) [2] | TbTryS Activity ± 2σn-1 (%) [3] | other results |
| --- | --- | --- | --- | --- |
| COc1ccc(CNCCCNCc2ccc(OC)cc2)cc1 [APC1-67] |  |  |  | remaining activity at 30 µM [1]: 92.4%; activity at 30 µM ([2]; read-out: LiTryS Activity ± 2σn-1 (%)): 102%; activity at 30 µM [3]: 71.9% |
| c1ccc(COc2ccc(CNCCCNCc3ccc(OCc4ccccc4)cc3)cc2)cc1 [APC1-71B] | 99.0 ± 19.1; 2% | 80.8 ± 8.7; 3% | 66.0 ± 0.7; 3% |  |
| COc1cc(CNCCCNCc2ccc(OCc3ccccc3)c(OC)c2)ccc1OCc1ccccc1 [APC1-79] | 63.3 ± 2.7; 2% | 72.1 ± 3.4; 4 (1.27) % | 66.0 ± 2.9; 4% |  |
| COc1cc(CNCCCNCc2ccc(O)c(OC)c2)ccc1O [APC1-82] | 92.9 ± 5.6; 4% | 84.9 ± 0.9; 4% | 88.1 ± 4.4; 3% |  |
| c1ccc(COc2ccc(CNCCCCNCc3ccc(OCc4ccccc4)cc3)cc2)cc1 [APC1-87] |  |  |  | inhibition at 30 µM [1]: 26.6 ± 4.1%; remaining activity at 30 µM [1]: 73.4%; IC50 ([2]; read-out: LiTryS IC50 (estimated)): ~30 µM; inhibition at 30 µM ([3]; read-out: % TbTryS inhibition ± 2σn-1): 37.9 ± 4%; activity at 30 µM [3]: 62.1% |
| COc1cc(CNCCCCNCc2ccc(O)c(OC)c2)ccc1O [APC1-93] | 94.4 ± 2.4; 4% | 101.3 ± 8.7. 4% | 94.0 ± 9.1; 5% |  |
| COc1ccc(CNCCCCCCNCc2ccc(OC)cc2)cc1 [APC1-98] | 94.2 ± 5.5; 2% | 79.6 ± 5.6; 4% | 72.8 ± 3.7; 4% |  |
| c1ccc(COc2ccc(CNCCCCCCNCc3ccc(OCc4ccccc4)cc3)cc2)cc1 [APC1-99] |  |  |  | inhibition at 30 µM [1]: 33.4 ± 4.1%; remaining activity at 30 µM [1]: 66.6%; IC50 [3]: ~30 µM |
| c1ccc(COc2ccc(CNCCCCCCCCNCc3ccc(OCc4ccccc4)cc3)cc2)cc1 [APC1-109] | 66.2 ± 10.9; 2% | 72.2 ± 6.2; 4% |  |  |
| c1ccc(CNCCCCCCCCCCNCc2ccccc2)cc1 [APC1-113] | 88.5 ± 6.6; 3% | 86.9 ± 6.3; 3% | 89.5 ± 3.6; 3% |  |
| COc1ccc(CNCCCCCCCCCCNCc2ccc(OC)cc2)cc1 [APC1-115] | 76.1 ± 2.5; 4% | 79.8 ± 2.3; 3% | 69.0 ± 6.3; 3% |  |
| c1ccc(COc2ccc(CNCCCCCCCCCCNCc3ccc(OCc4ccccc4)cc3)cc2)cc1 [APC1-117] | 90.8 ± 12.3; 2% | 69.8 ± 6.5; 3% | 71.4 ± 6.1; 4% |  |
| COc1cc(CNCCCCCCCCCCNCc2ccc(OCc3ccccc3)c(OC)c2)ccc1OCc1ccccc1 [APC1-119] | 101.5 ± 1.9; 4 (1.18) % | 78.1 ± 9.8; 6 (1.219) % | 55.5 ± 1.8. 3 (1.11) % |  |
| COc1cc(CNCCCCCCNCc2ccc(O)c(OC)c2)ccc1O [APC1-121] | 92.9 ± 5.0; 4% | 95.0 ± 7.8; 4% | 91.1 ± 4.8; 3% |  |
| COc1cc(CNCCCCCCCCNCc2ccc(O)c(OC)c2)ccc1O [APC1-122] | 94.5 ± 7.0; 4% | 102.8 ± 8.6; 3% | 91.6 ± 3.6; 3% |  |
| COc1cc(CNCCCCCCCCCCNCc2ccc(O)c(OC)c2)ccc1O [APC1-123] | 88.8 ± 6.5; 4% | 94.3 ± 8.2; 3% | 86.0 ± 5.5; 3% |  |
| CCCCn1c(=O)[nH]c(=O)c2c1nc(CSc1cccc(C(F)(F)F)c1)n2C [Compound C3, reference compound] | 91.1 ± 4.6; 4% | 84.5 ± 3.3; 3% | 92.7 ± 3.6; 3% |  |
| Cc1ccc2c(c1)no[n+]2[O-] [Compound J10] | 92.6 ± 10.8; 3% | 84.7 ± 10.5; 4% | 92.7 ± 3.4; 3% |  |
| Cc1cc2no[n+]([O-])c2cc1C [Compound J11] | 86.4 ± 2.9; 4% | 103.6 ± 10.4; 3% | 88.8 ± 5.8; 4% |  |
| CN1CCN(CCCN2c3ccccc3Sc3ccc(Cl)cc32)CC1 [prochlorperazine, reference compound] |  |  |  | inhibition of TcTryS [1]: none of the TryS was inhibited; reduction of TcTryS activity [1]: 34% |
